According to patent US12590091B2, “1H-pyrrolo[3,2-C]pyridine and 1H-pyrrolo[2,3-C]pyridine derivatives as TLR9 inhibitors for the treatment of fibrosis” (BRISTOL-MYERS SQUIBB COMPANY, priority 2020, dated 2026):

Molecular target: T1, human TLR8 (Homo sapiens, UniProt Q9NR97)
T1 construct: host or cells: HEK-Blue cells
T1 sequence (Q9NR97 27-1041): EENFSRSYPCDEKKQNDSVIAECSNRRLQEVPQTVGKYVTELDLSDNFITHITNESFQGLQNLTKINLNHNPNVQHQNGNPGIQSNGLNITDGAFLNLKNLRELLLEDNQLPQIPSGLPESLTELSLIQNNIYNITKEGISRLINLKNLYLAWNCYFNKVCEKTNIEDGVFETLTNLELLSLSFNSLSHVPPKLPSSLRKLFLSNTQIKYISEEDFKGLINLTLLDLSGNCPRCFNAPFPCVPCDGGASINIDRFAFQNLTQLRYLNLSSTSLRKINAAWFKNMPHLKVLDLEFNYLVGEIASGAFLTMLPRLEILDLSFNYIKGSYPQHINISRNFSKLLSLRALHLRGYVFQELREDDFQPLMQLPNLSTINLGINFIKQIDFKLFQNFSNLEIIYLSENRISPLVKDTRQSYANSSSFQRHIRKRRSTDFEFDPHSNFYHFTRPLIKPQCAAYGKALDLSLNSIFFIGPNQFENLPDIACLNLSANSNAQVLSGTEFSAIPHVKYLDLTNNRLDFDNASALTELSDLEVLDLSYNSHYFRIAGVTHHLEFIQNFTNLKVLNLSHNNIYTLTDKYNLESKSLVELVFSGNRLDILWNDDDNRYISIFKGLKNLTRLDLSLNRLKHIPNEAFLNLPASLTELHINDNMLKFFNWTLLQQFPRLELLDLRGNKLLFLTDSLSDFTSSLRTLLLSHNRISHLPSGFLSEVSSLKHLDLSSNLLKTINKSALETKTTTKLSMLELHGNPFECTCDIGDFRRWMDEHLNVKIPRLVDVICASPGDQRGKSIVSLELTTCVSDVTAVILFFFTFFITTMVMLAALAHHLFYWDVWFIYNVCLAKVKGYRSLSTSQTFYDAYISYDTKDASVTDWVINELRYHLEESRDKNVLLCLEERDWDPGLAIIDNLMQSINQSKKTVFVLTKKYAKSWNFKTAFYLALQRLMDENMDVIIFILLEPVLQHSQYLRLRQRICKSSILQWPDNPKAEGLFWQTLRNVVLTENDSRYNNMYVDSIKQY
Assay: TLR8 inhibition reporter assay (HEK-Blue cells, SEAP reporter)
Assay type: cell-based
Details: HEK-Blue cells overexpressing human TLR8, stimulated with R848 15.9 μM, 22 hour incubation
Procedure: TLR7/8/9 Inhibition Reporter Assays
HEK-Blue™-cells (Invivogen) overexpressing human TLR7, TLR8 or TLR9 receptors were used for screening inhibitors of these receptors using an inducible SEAP (secreted embryonic alkaline phosphatase) reporter gene under the control of the IFN-β minimal promoter fused to five NF-κB and AP-1-binding sites. Briefly, cells are seeded into Greiner 384 well plates (15000 cells per well for TLR7, 20,000 for TLR8 and 25,000 for TLR9) and then treated with test compounds in DMSO to yield a final dose response concentration range of 0.05 nM-50 μM. After a 30 minute compound pre-treatment at room temperature, the cells are then stimulated with a TLR7 ligand (gardiquimod at a final concentration of 7.5 μM), TLR8 ligand (R848 at a final concentration of 15.9 μM) or TLR9 ligand (ODN2006 at a final concentration of 5 nM) to activate NF-κB and AP-1 which induce the production of SEAP. After a 22 hour incubation at 37° C., 5% CO2, SEAP levels are determined with the addition of HEK-Blue™ Detection reagent (Invivogen), a cell culture medium that allows for detection of SEAP, according to manufacturer's specifications. The percent inhibition is determined as the % reduction in the HEK-Blue signal present in wells treated with agonist plus DMSO alone compared to wells treated with a known inhibitor.

Row | Structure (SMILES) | IC50 [µM]
1 | Cc1nc(-c2ccc(C3(O)CCN(C4CC4)CC3)cc2)cc2c1cc(-c1ccc(S(C)(=O)=O)cc1)n2C [Example 87, 1-cyclopropyl-4-(4-(1,4-dimethyl-2-(4-(methylsulfonyl)phenyl)-1H-pyrrolo[3,2-c]pyridin-6-yl)phenyl)piperidin-4-ol] | 4
2 | COc1ccc(-c2cc3cnc(-c4ccc(N5CCN(CC6CC6)CC5)cc4)cc3n2C)cc1OC [Example 9, 6-(4-(4-(Cyclopropylmethyl)piperazin-1-yl)phenyl)-2-(3,4-dimethoxyphenyl)-1-methyl-1H-pyrrolo[3,2-c]pyridine] | 1.5
3 | COc1ccc(-c2c(C)[nH]c3cnc(C4CCN(C(=O)CN5CCCC5)CC4)cc23)cc1OC [Example 21, 1-(4-(3-(3,4-dimethoxyphenyl)-2-methyl-1H-pyrrolo[2,3-c]pyridin-5-yl)piperidin-1-yl)-2-(pyrrolidin-1-yl)ethan-1-one] | > 50
4 | CC(C)(O)CN1CCN(Cc2ccc(-c3cc4c(cn3)cc(-c3ccc(S(C)(=O)=O)cc3)n4C3CC3)cc2)CC1 [Example 128, 1-(4-(4-(1-cyclopropyl-2-(4-(methylsulfonyl)phenyl)-1H-pyrrolo[3,2-c]pyridin-6-yl)benzyl)piperazin-1-yl)-2-methylpropan-2-ol] | 7.9
5 | Cc1nc(-c2ccc(N3CCN(CC(C)C)CC3)cc2)cc2c1cc(-c1ccc(S(C)(=O)=O)cc1)n2C [Example 34, 6-(4-(4-isobutylpiperazin-1-yl)phenyl)-1,4-dimethyl-2-(4-(methylsulfonyl)phenyl)-1H-pyrrolo[3,2-c]pyridine] | > 50
6 | Cc1nc(-c2ccc(CN3CCN(CC(C)(C)O)CC3)cc2)cc2c1c(F)c(-c1ccc(S(C)(=O)=O)cc1)n2C [Example 122, 1-(4-(4-(3-fluoro-1,4-dimethyl-2-(4-(methylsulfonyl)phenyl)-1H-pyrrolo[3,2-c]pyridin-6-yl)benzyl)piperazin-1-yl)-2-methylpropan-2-ol] | 3.7
7 | Cc1nc(-c2ccc(CN3CCN(CC(C)(C)O)CC3)cc2)cc2c1cc(-c1ccc(S(C)(=O)=O)cc1)n2C1CC1 [Example 123, 1-(4-(4-(1-cyclopropyl-4-methyl-2-(4-(methylsulfonyl)phenyl)-1H-pyrrolo[3,2-c]pyridin-6-yl)benzyl)piperazin-1-yl)-2-methylpropan-2-ol] | 17.6
8 | Cc1nc(-c2ccc(CN3CCN(CCC(C)(C)O)CC3)cc2)cc2c1c(F)c(-c1ccc(S(C)(=O)=O)cc1)n2C [Example 115, 4-(4-(4-(3-fluoro-1,4-dimethyl-2-(4-(methylsulfonyl)phenyl)-1H-pyrrolo[3,2-c]pyridin-6-yl)benzyl)piperazin-1-yl)-2-methylbutan-2-ol] | 2.1
9 | Cc1nc(-c2ccc(N3CC4CCC(C3)N4CCCO)cc2)cc2c1cc(-c1ccc(S(C)(=O)=O)cc1)n2C [Example 76, 3-(3-(4-(1,4-dimethyl-2-(4-(methylsulfonyl)phenyl)-1H-pyrrolo[3,2-c]pyridin-6-yl)phenyl)-3,8-diazabicyclo[3.2.1]octan-8-yl)propan-1-ol] | 18.3
10 | CCOC(=O)N1CCC(N2CCC(c3cc4c(-c5ccc(OC)c(OC)c5)c(C)n(C)c4cn3)CC2)CC1 [Example 20, ethyl 4-(3-(3,4-dimethoxyphenyl)-1,2-dimethyl-1H-pyrrolo[2,3-c]pyridin-5-yl)-[1,4′-bipiperidine]-1′-carboxylate] | > 50
11 | COc1ccc(-c2c(C)n(C)c3cnc(C4CCN(C5CCN(CC(C)C)CC5)CC4)cc23)cc1OC [Example 17, 3-(3,4-dimethoxyphenyl)-5-(1′-isobutyl-[1,4′-bipiperidin]-4-yl)-1,2-dimethyl-1H-pyrrolo[2,3-c]pyridine] | > 50
12 | COCCN1C2CCC1CN(c1ccc(-c3cc4c(cc(-c5ccc(S(C)(=O)=O)cc5)n4C)c(C)n3)cc1)C2 [Example 74, 6-(4-(8-(2-methoxyethyl)-3,8-diazabicyclo[3.2.1]octan-3-yl)phenyl)-1,4-dimethyl-2-(4-(methylsulfonyl)phenyl)-1H-pyrrolo[3,2-c]pyridine] | 19.4
13 | Cc1nc(-c2ccc([C@@]3(O)CCN(C(C)C)C(C)(C)C3)c(F)c2)cc2c1cc(-c1ccc(S(C)(=O)=O)cc1)n2C [Example 105, (R)-4-(4-(1,4-dimethyl-2-(4-(methylsulfonyl)phenyl)-1H-pyrrolo[3,2-c]pyridin-6-yl)-2-fluorophenyl)-1-isopropyl-2,2-dimethylpiperidin-4-ol] | 0.2
14 | CC(C)N1CCN(c2ccc(-c3cc4c(cc(-c5ccc(S(C)(=O)=O)cc5)n4C)c(C(C)(C)O)n3)cc2)CC1 [Example 118, 2-[6-[4-(4-isopropylpiperazin-1-yl)phenyl]-1-methyl-2-(4-methylsulfonylphenyl)pyrrolo[3,2-c]pyridin-4-yl]propan-2-ol] | 8.1
15 | COc1ccc(-c2c(C)[nH]c3cnc(C4CCN(C5CCN(C(=O)OCc6ccccc6)CC5)CC4)cc23)cc1OC [Example 4, Benzyl 4-(3-(3,4-dimethoxyphenyl)-2-methyl-1H-pyrrolo[2,3-c]pyridin-5-yl)-[1,4′-bipiperidine]-1′-carboxylate] | 23.5
16 | Cc1nc(-c2ccc(CN3CCN(CC(C)(C)O)CC3)cc2)cc2c1cc(-c1ccc(S(C)(=O)=O)cc1)n2C [Example 44, 1-(4-(4-(1,4-Dimethyl-2-(4-(methylsulfonyl)phenyl)-1H-pyrrolo[3,2-c]pyridin-6-yl)benzyl)piperazin-1-yl)-2-methylpropan-2-ol] | 1.2
17 | COCCN1C2CCC1CN(c1cc(F)c(-c3cc4c(cc(-c5ccc(S(C)(=O)=O)cc5)n4C)c(C)n3)cc1F)C2 [Example 78, 6-(2,5-difluoro-4-(8-(2-methoxyethyl)-3,8-diazabicyclo[3.2.1]octan-3-yl)phenyl)-1,4-dimethyl-2-(4-(methylsulfonyl)phenyl)-1H-pyrrolo[3,2-c]pyridine] | 9.4
18 | COc1ccc(-c2cc3cnc(-c4ccc(N5CCN(C(C)C)CC5)nc4)cc3n2C)cc1OC [Example 31, 2-(3,4-dimethoxyphenyl)-6-(6-(4-isopropylpiperazin-1-yl)pyridin-3-yl)-1-methyl-1H-pyrrolo[3,2-c]pyridine] | 1.7
19 | Cc1nc(-c2ccc(CN3CCC(C)(O)CC3)cc2)cc2c1cc(-c1ccc(S(C)(=O)=O)cc1)n2C [Example 59, 1-(4-(1,4-dimethyl-2-(4-(methylsulfonyl)phenyl)-1H-pyrrolo[3,2-c]pyridin-6-yl)benzyl)-4-methylpiperidin-4-ol] | 17.2
20 | COc1ccc(-c2c(C)[nH]c3cnc(C4CCN(c5cc(C)nc(C)c5)CC4)cc23)cc1OC [Example 6, 3-(3,4-Dimethoxyphenyl)-5-(1-(2,6-dimethylpyridin-4-yl)piperidin-4-yl)-2-methyl-1H-pyrrolo[2,3-c]pyridine] | 23.3
21 | Cc1nc(-c2ccc(C3(O)CC4CCC(C3)N4C(C)C)c(F)c2)cc2c1cc(-c1ccc(S(C)(=O)=O)cc1)n2C [Example 100, (1R,3r,5S)-3-(4-(1,4-dimethyl-2-(4-(methylsulfonyl)phenyl)-1H-pyrrolo[3,2-c]pyridin-6-yl)-2-fluorophenyl)-8-isopropyl-8-azabicyclo[3.2.1]octan-3-ol] | 1.3
22 | Cc1nc(-c2cc(F)c(N3CCN(CCCO)CC3)cc2F)cc2c1cc(-c1ccc(S(C)(=O)=O)cc1)n2C [Example 56, 3-(4-(4-(1,4-dimethyl-2-(4-(methylsulfonyl)phenyl)-1H-pyrrolo[3,2-c]pyridin-6-yl)-2,5-difluorophenyl)piperazin-1-yl)propan-1-ol] | 13.2
23 | Cc1nc(-c2ccc(N3CC4CCC(C3)N4CCCO)c(F)c2)cc2c1cc(-c1ccc(S(C)(=O)=O)cc1)n2C [Example 77, 3-(3-(4-(1,4-dimethyl-2-(4-(methylsulfonyl)phenyl)-1H-pyrrolo[3,2-c]pyridin-6-yl)-2-fluorophenyl)-3,8-diazabicyclo[3.2.1]octan-8-yl)propan-1-ol] | 19.2
